For data set [1], the system named is aggressivity of isolated mice. The data set can be described thus: Aggressivity of isolated mice. It counts as in vivo, male mouse. The note with it: for ED50: Mus musculus, read-out: ED50, inhibition of aggressivity. As to the method:
If a male mouse is kept alone in a cage for 3 weeks to 1 month, it will spontanesouly attack any other animal of the same species which is placed in the same cage. If the other animal has also been isolated under the same conditions a series of fights takes place.
Mice were isolated for the period of time required to render them spontaneously aggressive. Couples were then put together and note was taken of the number of fights which took place over a period of 3 minutes. Each batch was composed of four pairs of mice.
The animals of each batch were then treated by intragastric route with the compound to be studied which was administered in such a way that each batch received a higher dose than the preceding batch. […]
The results were expressed in the percentage of decrease in the number of fights between the animals after treatment in comparison with the percentage obtained before treatment which represents the percentage of inhibition of aggressivity.

Data set [2] concerns reserpine-induced hypothermia. Nature of the data set: Reserpine-induced hypothermia in the rat. Particulars: 10 mg/kg oral; reserpine 5 mg/kg i.p.; mean to 6th hour vs controls. It counts as in vivo, male rats CF1.
Experimental: (§2) The thymoanaleptic properties of the compounds of the invention were determined by means of reserpine-induced ptosis and hypothermia in the rat.
An intraperitoneal dose of 5 mg/kg of reserpine was administered to batches of 5 male rats CF1 weighing an average of 300 g. Thirty minutes later, the rectal temperature was determined and then a dose of the compound to be tested was given by oral route, except to the control animals. The rectal temperature of all the animals including the controls was taken every hour up to the 6th hour.
The difference between these two averages enabled an estimation to be made regarding the antagonistic effect of the compounds of the invention on the hypothermia induced by reserpine.
For data set [3], the system named is cholinergic effects provoked by tremorine. The data set can be described thus: Cholinolytic properties: action with respect to tremorine. The note with it: tremorine 10 mg/kg, difference vs controls. The class given is in vivo, male mice of the OF1 strain. The method, then: When injected into mice, tremorine and its metabolite, oxotremorine, produce central cholinergic effects, i.e. normal and provoked tremor as well as peripheral cholinergic effects i.e. weeping, sweating diarrhoea and salivation.
Male mice of the OF1 strain weighing 22 g, were divided into batches of 10. Each batch with the exception of the control animals, received, by oral route, a dose of the compound to be tested.
Thirty minutes later, 10 mg/kg of tremorine were administered to all the batches and thirty minutes after the injection of tremorine note was taken of the cholinergic effects on each animal in accordance with the following scale: […]

In data set [4] the test system is stereotypies induced by amphetamine. Nature of the data set: Potentiation of the stereotypies induced by amphetamine. The class given is in vivo, rats. As to the method:
It is commonly admitted that amphetamine induces stereotypies by stimulating the dopaminergic receptors and inhibiting the re-uptake of dopamine into the neuron.
The thymoanaleptics potentiate these stereotypies.
Thirty minutes later, a dose of 10 mg/kg of the compound to be tested was given by oral route. Note was taken of the intensity of the stereotypies every 30 minutes for 150 minutes in accordance with the following scale which indicates the behaviour of the animal.
0 : the rat is motionless and asleep
1 : the rat is motionless and awake
3 : the rat stands on its hind paws and sniffs the lid of its cage in a stereotyped manner.
4 : the rat licks the walls of its cage in a stereotyped manner
5 : the rat bites the bars of its cage or sniffs the shavings of its litter in a stereotyped manner
6 : the rat chews the shavings in a stereotyped manner
The average of the 5 results obtained for each batch was calculated and compared with the average obtained with the control animals.
The difference between these averages represents the mean increase of the steroetypies of the treated animals in comparison with the controls.

The test system of another data set is reserpine-induced ptosis. The data set can be described thus: Reserpine-induced ptosis in the rat. The class given is in vivo, male rats of the CF1 strain. The note with it: reserpine 5 mg/kg i.p., score scale 0-4, mean to 6th hour vs controls.
In data set [5] the test system is aggressivity of killer rats. Nature of the data set: Aggressivity of killer rats. The class given is in vivo, male rats. From the text:
If, under certain conditions, male rats are kept alone in individual cages for several weeks, the become spontaneously aggressive towards any mouse, which they kill as soon as it is placed in the same cage. Mice were introduced one after another into cages containing an isolated rat and a selection was made of the rats which immediately killed three mice. In this way batches of 6 to 8 rats were constituted. The rats were then given the compound to be studied by intraperitoneal route in such a way that each batch received a higher dose than the preceding batch. […] Table V which follows contains the results obtained 30 minutes after administration of the compound to be studied.

The test system of data set [6] is peripheral noradrenergic processes. The note with it: intravenous route; cited from earlier work.
Another data set has as its system toxicity of yohimbine. The data set can be described thus: Potentiation of the toxicity of yohimbine (test of QUINTON). The class given is in vivo, male mice. The method, then: Yohimbine is a substance which provokes an increase in the serotonine level in the brain or a decrease in norepinephrine according to the author.
For this purpose, the test of QUINTON was used which is described in Brit. J. Pharmacol. 21, 51 (1963). […] […] The percentage of mortality was noted after 24 hours.
Table III hereunder expresses the percentage of potentiation of the toxicity due to yohimbine in comparison with the controls.
The percentage in question was determined 24 hours after the administration of yohimbine.

The subject of a further data set is neuromuscular functions. Nature of the data set: Rotarod test of BOISSIER / neuromuscular functions. It counts as in vivo, mouse. Particulars: 30 minutes after oral administration, mouse. (In general: The rotarod test checks motor coordination on a turning rod.)
A short description of data set [7]: Toxicity, method of KARBER and BEHRENS, rats. The note with it: rat, in vivo. As to the method:
(§1) Finally, tests of toxicity were performed with compounds of the invention following the method of KARBER and BEHRENS.

Data set [8] has as its system contractile reaction of the nictitating membrane. The data set can be described thus: Ganglioplegic activity on the anesthetized cat (nictitating membrane). The class given is in vivo. Particulars: intravenous 0.005, 0.1 and 1 mg/kg. As to the method:
The tonus of the nictitating membrane was first noted after which the contractile reaction of the membrane to electric stimulation of the preganglionic fibre of the cervical sympathetic nerve was tested.

A further data set deals with spontaneous motricity. The data set can be described thus: Spontaneous motricity in the mouse. The class given is in vivo. As to the method:
Tests were also performed with a view to determining whether the compounds of the invention modify spontaneous motricity.

The nature of data set [9]: Toxicity, method of KARBER and BEHRENS, mice. Particulars: mouse, in vivo, po. The method, then:
as §1

Like-named read-outs stand apart in the source and are kept apart here.

One may read the inhibition in vivo as the share of the control response that was lost under treatment. Higher therefore signals strong suppression. Broadly, the mortality is the share of the test organisms that died. For orientation: ED50 means the dose at which the effect has come halfway, by size or by number of responders. What is called LD50 is the dose expected to kill half of the subjects tested. Higher therefore signals a less toxic substance.

Experimental for reserpine-induced ptosis: as §2
An intraperitoneal dose of 5 mg/kg of reserpine was administered to batches of 5 male rats of the CF1 strain weighing an average of 300 g.
Thirty minutes later a dose of the compound to be studied was given by oral route and the inhibitory effect of the reserpine was noted every hour up to the sixth hour. Ptosis was evaluated for each eye in accordance with the following scale:
4 : eyelids completely closed.
The difference between these two averages represents the average decrease of the ptosis in the treated animals as compared to the controls.

Take `CN(C)CCCN1c2ccccc2CCc2ccccc21` [imipramine, 5-(3-dimethylaminopropyl)-10,11-dihydro-5H-dibenz [b,f] azepine, reference compound]: the inhibition of aggressivity in data set [1] (20 mg/kg) came to 78%. In addition, the “dose of imipramine giving the same activity as Compound 1” value in [1] (relative to 0.42 mg/kg of Compound 1, intragastric, 90 minutes) was “twenty-times greater”. In data set [2], the “Average inhibition of hypothermia (positive °C)” value came out at 0.4 °C. Besides, in data set [3] (20 mg/kg oral), the “Central response tremor: Normal” value was -4, the “Central response tremor: Provoked” value is listed as -0.4, the “Peripheral cholinergic response: Salivat.” value was determined as 0 and the “Peripheral cholinergic response: Sweating” value was -2. The “Peripheral cholinergic response: Weeping” value in [3] (20 mg/kg oral) was -0.8. Also, the “Average increase of the stereotypies” value in data set [4] (5 mg/kg, same conditions (intragastric), 150 minutes) was determined as 4.4. For the same molecule, the “Average increase of the stereotypies” value in [4] (20 mg/kg, same conditions (amphetamine 10 mg/kg i.p.)) is recorded as 6. Further, in the data set on reserpine-induced ptosis (20 mg/kg oral), the “Average decrease of Ptosis” value came to 1.6. In data set [5] (Rattus norvegicus, ip, 0.5 h, 20 mg/kg i.p., 30 minutes after administration), this molecule had an inhibition in vivo at 20 mg/kg of 45%. In addition, the “dose potentiating the peripheral effects of exogenous norepinephrine” value in [6] is on record as at least 1 mg/kg. Further, in the data set on toxicity of yohimbine (Mus musculus, 50 mg/kg oral, yohimbine hydrochloride 25 mg/kg i.p., mortality after 24 hours), the mortality at 50 mg/kg was found to be 50%.

`CC(Oc1cccc2ccccc12)C(N)=NO` (centres unmarked) [Compound 1, 2-(1-Naphthyloxy)-propionamidoxime]: the “neurotoxic dose 50 (NTD 50) relative to ED50 (isolated mouse)” value in the data set on neuromuscular functions is listed as “sufficiently far removed from the ED50”. Also, the ED50 in data set [1] (po, 1.5 h, intragastric route, 90 minutes after administration) stood at 0.42 mg/kg. Besides, the ED50 in data set [1] (oral route) was 0.63 mg/kg. Also, the LD50 at 24 h in data set [7] (ip) turned out to be 50 mg/kg. The same molecule had an LD50 at 24 h in data set [7] (po) of 108 mg/kg. In [2], the “Average inhibition of hypothermia (positive °C)” value was 0.7 °C. In addition, in [8], the “intensity of the contractions of the nictitating membrane (ganglioplegic effect)” value is reported as “did not modify the intensity of the contractions of the membrane”. Further, in data set [3] (5 mg/kg oral), the “Central response tremor: Normal” value was 0, the “Central response tremor: Provoked” value was found to be 0, the “Peripheral cholinergic response: Salivat.” value was 0 and the “Peripheral cholinergic response: Sweating” value worked out at 0. For the same molecule, the “Peripheral cholinergic response: Weeping” value in data set [3] (5 mg/kg oral) is 0. For the same molecule, in the data set on spontaneous motricity (3 mg/kg intragastric, mouse), the “effect on curiosity of the animal” value is on record as “without, however modifying the curiosity of the animal”. Moreover, the “reduction of spontaneous motricity” value in the data set on spontaneous motricity (3 mg/kg intragastric, mouse, 30 minutes after administration) came to 50%. In addition, the “sedation at doses active against aggressivity” value with spontaneous motricity (conclusion from ratio of doses) is “not sedative at the doses which are active against aggressivity”. Moreover, in data set [4] (10 mg/kg oral, amphetamine 10 mg/kg i.p., every 30 min for 150 min), the “Average increase of the stereotypies” value was found to be 1. Besides, the “Average decrease of Ptosis” value with reserpine-induced ptosis (10 mg/kg oral) stood at 1.7. In [5] (Rattus norvegicus, ip, 0.5 h, 3 mg/kg i.p., 30 minutes after administration), this molecule yielded an inhibition in vivo at 3 mg/kg of 100%. For the same molecule, the antiaggressive properties result in data set [5] (conclusion from Table V) is “powerful antiaggressive properties”. Moreover, the LD50 at 24 h in data set [9] was 380 mg/kg. In addition, the “Potentiation of the toxicity of yohimbine” value in the data set on toxicity of yohimbine (20 mg/kg, same conditions (yohimbine hydrochloride 25 mg/kg i.p.; 24 hours)) worked out at 50%.

Source of the values: patent publication US3984470A, “Amidoxime derivatives and process for preparing the same” (priority 1974, dated 1976).
